Reference: paper PMC3006138, “Fexinidazole – A New Oral Nitroimidazole Drug Candidate Entering Clinical Development for the Treatment of Sleeping Sickness” (PLoS Neglected Tropical Diseases, 2010)
Read-outs that look alike come from different tables or passages of the source.

Test: Rat 28-day toxicokinetics
Assay type: in vivo
Conditions: plasma, po; for AUC: read-out: AUC within 24 hours post dosing; for half-life: read-out: apparent terminal half-life (converted)
Description: In the rat repeated-dose toxicokinetic study, fexinidazole was administered orally by gavage once a day for 28 consecutive days to ten or fifteen Crl:CD (SD)IGS BR rats/sex/group at doses of 50, 200, or 800 mg/kg/day. A control group received the vehicle alone (5% Tween 80/0.5% methocel). Ten animals/sex/group were sacrificed at the end of the treatment period on day 29 or 30 of study. The remaining 5 animals/sex/group in the control and high-dose groups were sacrificed on day 43 at the end of a 2-weeks observation period. Systemic exposure to fexinidazole and its sulfoxide and sulfone metabolites was evaluated in three additional animals/sex/group. Samples were taken at predose, and 30 min, 1, 2, 4, 8 and 24 h after dosing on days 1, 14, and 28, and in addition at 48 and 72 h after treatment on day 28.
Toxicokinetic Report for the study No. 0504-2007
SD Standard deviation of the mean […]
t1/2,z Terminal half-life tmax Time to peak plasma concentration
ULOQ Upper limit of quantification
The study was conducted according to the study protocol and related amendment.
Fexinidazole was orally given by gavage once a day for 28 days to male and female Sprague Dawley rats according to the following scheme
Fexinidazole was suspended with 5% Tween 80 in 0.5% Methyl cellulose 400 cP.
6.2. Sample Collection and Handling
Blood samples (about 0.25 mL/sampling time) were withdrawn from retro-orbital sinus plexus under isofluorane anesthesia and put in heparinized plastic tubes kept on a ice-water bath, then centrifuged for 10 min at 1200g at +4°C and two aliquots of about 50 μL of plasma were stored in a freezer at -80°C until analysis. Blood was taken from three rats/gender/dose on Days 1 and 14 at pre-dose and 0.5, 1, 2, 4, 8 and 24 hours after dosing, on Day 28 at pre-dose and 1, 2, 4, 8, 24, 48 and 72 hours after dosing. After the administration of the vehicle, the samples were taken from three rats/gender at pre-dose and […]
6.3. Bioanalytical Method
Rat plasma concentrations of Fexinidazole and its sulfoxide (M1) and sulfone (M2) metabolites were determined by a validated LC/MS/MS method. The calibration range for the assay was 5-1000 ng/mL for Fexinidazole and 25-25000 ng/mL for M1 and M2.
Study samples containing analytes concentrations above the upper limit of quantitation were diluted with blank matrix prior to analysis.
6.4. Pharmacokinetic Calculations
Pharmacokinetic evaluation was carried out using non-compartmental approach with the aid […]
Excel spreadsheet (Microsoft Inc., Seattle, USA). […]
In the calculations, the undetectable concentrations between detectable ones were ignored.
After each dose level, Cmax and tmax of Fexinidazole and sulfoxide and sulfone metabolites […]
linear trapezoidal rule up to the last detectable concentration. On Day 28, since the blood […]
24 hours post dosing was calculated and denoted AUC0-24. This AUC was calculated in order to compare AUC values on Day 28 to those on Day 1 and Day 14. On Day 28, in addition, the half-life of the terminal phase, t1/2,z, was determined by linear regression analysis of the natural-log concentration vs. time curve, where t1/2,z = ln(2)/slope of the regression line.
Fexinidazole and metabolites accumulation ratios, based on Cmax (RA,Cmax), AUC0-24 (RA,AUC0-24) and AUC0-t(last) (RA,AUC0-t(last)), were calculated as the ratio between the parameters obtained on Day 14 and Day 28 to the corresponding one at Day 1. […]
pharmacokinetic parameters of each compound sorted by dose, gender and day of dosing. […]
compound are reported in Tables 1 and 2, whilst individual and mean parameters of each […]
Individual and mean (±SD, CV%) plasma
2A1 - 19A1 of Appendix 1. Individual plasma concentrations of Fexinidazole and both metabolites are plot in Figures 1 - 9, whilst the mean concentrations are plot in Figures 10 - 15. Mean normalized Cmax and AUC0-t(last) values of Fexinidazole and metabolites vs. dose are plot in Figures 16 - 21.
In-study bioanalytical validation data are reported in Appendix 2. All analytical batches met […]

[1] = Sprague Dawley (Crl:CD (SD)IGS BR), 50 mg/kg/day, Day 28, female
[2] = Sprague Dawley (Crl:CD (SD)IGS BR), 200 mg/kg/day, Day 28, female
[3] = Sprague Dawley (Crl:CD (SD)IGS BR), 200 mg/kg/day, Day 28, male
[4] = Sprague Dawley (Crl:CD (SD)IGS BR), 800 mg/kg/day, Day 28, female (n=2)
[5] = Sprague Dawley (Crl:CD (SD)IGS BR), 800 mg/kg/day, Day 28, male
[6] = Sprague-Dawley (Crl:CD (SD)IGS BR), 50 mg/kg/day, 50 mg/kg/day po, day 1
[7] = Sprague-Dawley (Crl:CD (SD)IGS BR), 50 mg/kg/day, 50 mg/kg/day po, day 14
[8] = Sprague-Dawley (Crl:CD (SD)IGS BR), 200 mg/kg/day, 200 mg/kg/day po, day 1
[9] = both sexes, Sprague-Dawley (Crl:CD (SD)IGS BR), 200 mg/kg/day, 200 mg/kg/day po, day 14
[10] = both sexes, Sprague-Dawley (Crl:CD (SD)IGS BR), 800 mg/kg/day, 800 mg/kg/day po, day 1
[11] = both sexes, Sprague-Dawley (Crl:CD (SD)IGS BR), 800 mg/kg/day, 800 mg/kg/day po, day 14

## CSc1ccc(OCc2ncc([N+](=O)[O-])n2C)cc1 [Fexinidazole, 1-methyl-2-((p-(methylthio)phenoxy)methyl)-5-nitroimidazole]
[1]
  AUC: 1450 ± 335 ng·h/mL
  half-life: 5.1 ± 5.1 h
Sprague Dawley (Crl:CD (SD)IGS BR), 50 mg/kg/day, Day 28, male
  half-life: 4.7 ± 1.2 h
[2]
  AUC: 4440 ± 514 ng·h/mL
  half-life: 6.3 ± 4.5 h
[3]
  AUC: 2330 ± 1760 ng·h/mL
  half-life: 8.8 ± 4.8 h
[4]
  AUC: 7640 ± 1780 ng·h/mL
  half-life: 6.7 ± 2.3 h
[5]
  AUC: 3170 ± 734 ng·h/mL
  half-life: 11 ± 2.7 h
[6]
  Cmax: 90 ± 70 ng/mL
  Tmax: 1.42 ± 1.28 h
Sprague-Dawley (Crl:CD (SD)IGS BR), 50 mg/kg/day, 50 mg/kg/day po, day 1, read-out: AUC0-t(last)
  AUC(0-t): 470 ± 340 ng·h/mL
[7]
  Cmax: 180 ± 140 ng/mL
  Tmax: 1.92 ± 1.2 h
Sprague-Dawley (Crl:CD (SD)IGS BR), 50 mg/kg/day, 50 mg/kg/day po, day 14, read-out: AUC0-t(last)
  AUC(0-t): 830 ± 540 ng·h/mL
[8]
  Cmax: 380 ± 280 ng/mL
  Tmax: 1.92 ± 1.2 h
Both sexes, Sprague-Dawley (Crl:CD (SD)IGS BR), 200 mg/kg/day, 200 mg/kg/day po, day 1, read-out: AUC0-t(last)
  AUC(0-t): 2160 ± 1340 ng·h/mL
[9]
  Cmax: 520 ± 300 ng/mL
  Tmax: 2.08 ± 1.11 h
Both sexes, Sprague-Dawley (Crl:CD (SD)IGS BR), 200 mg/kg/day, 200 mg/kg/day po, day 14, read-out: AUC0-t(last)
  AUC(0-t): 3020 ± 1470 ng·h/mL
[10]
  Cmax: 1480 ± 710 ng/mL
  Tmax: 1.58 ± 0.66 h
Both sexes, Sprague-Dawley (Crl:CD (SD)IGS BR), 800 mg/kg/day, 800 mg/kg/day po, day 1, read-out: AUC0-t(last)
  AUC(0-t): 12800 ± 4100 ng·h/mL
[11]
  Cmax: 1020 ± 870 ng/mL
  Tmax: 3.17 ± 2.84 h
Both sexes, Sprague-Dawley (Crl:CD (SD)IGS BR), 800 mg/kg/day, 800 mg/kg/day po, day 14, read-out: AUC0-t(last)
  AUC(0-t): 9290 ± 5200 ng·h/mL
female, Sprague Dawley (Crl:CD (SD)IGS BR), 50 mg/kg, Day 1, female
  Cmax: 149 ± 46 ng/mL
female, Sprague Dawley (Crl:CD (SD)IGS BR), 50 mg/kg, Day 1, female, read-out: AUC0-t(last)
  AUC(0-t): 759 ± 153 ng·h/mL
female, Sprague Dawley (Crl:CD (SD)IGS BR), 50 mg/kg/day, Day 28, female
  Cmax: 422 ± 358 ng/mL
female, Sprague Dawley (Crl:CD (SD)IGS BR), 50 mg/kg/day, Day 28, female, read-out: AUC0-t(last)
  AUC(0-t): 1630 ± 570 ng·h/mL
female, Sprague Dawley (Crl:CD (SD)IGS BR), 200 mg/kg, Day 1, female
  Cmax: 604 ± 211 ng/mL
female, Sprague Dawley (Crl:CD (SD)IGS BR), 200 mg/kg, Day 1, female, read-out: AUC0-t(last)
  AUC(0-t): 3200 ± 856 ng·h/mL
female, Sprague Dawley (Crl:CD (SD)IGS BR), 200 mg/kg/day, Day 28, female
  Cmax: 903 ± 87 ng/mL
female, Sprague Dawley (Crl:CD (SD)IGS BR), 200 mg/kg/day, Day 28, female, read-out: AUC0-t(last)
  AUC(0-t): 4750 ± 508 ng·h/mL
female, Sprague Dawley (Crl:CD (SD)IGS BR), 800 mg/kg, Day 1, female
  Cmax: 1480 ± 200 ng/mL
female, Sprague Dawley (Crl:CD (SD)IGS BR), 800 mg/kg, Day 1, female, read-out: AUC0-t(last)
  AUC(0-t): 15700 ± 3610 ng·h/mL
female, Sprague Dawley (Crl:CD (SD)IGS BR), 800 mg/kg/day, Day 28, female (n=2)
  Cmax: 749 ± 90 ng/mL
female, Sprague Dawley (Crl:CD (SD)IGS BR), 800 mg/kg/day, Day 28, female (n=2), read-out: AUC0-t(last)
  AUC(0-t): 7940 ± 2210 ng·h/mL
male, Sprague Dawley (Crl:CD (SD)IGS BR), 50 mg/kg, Day 1, male
  Cmax: 39 ± 17 ng/mL
male, Sprague Dawley (Crl:CD (SD)IGS BR), 50 mg/kg, Day 1, male, read-out: AUC0-t(last)
  AUC(0-t): 178 ± 99 ng·h/mL
male, Sprague Dawley (Crl:CD (SD)IGS BR), 50 mg/kg/day, Day 28, male
  Cmax: 133 ± 24 ng/mL
male, Sprague Dawley (Crl:CD (SD)IGS BR), 50 mg/kg/day, Day 28, male, read-out: AUC0-t(last)
  AUC(0-t): 889 ± 287 ng·h/mL
male, Sprague Dawley (Crl:CD (SD)IGS BR), 200 mg/kg, Day 1, male
  Cmax: 165 ± 97 ng/mL
male, Sprague Dawley (Crl:CD (SD)IGS BR), 200 mg/kg, Day 1, male, read-out: AUC0-t(last)
  AUC(0-t): 1120 ± 708 ng·h/mL
male, Sprague Dawley (Crl:CD (SD)IGS BR), 200 mg/kg/day, Day 28, male
  Cmax: 255 ± 136 ng/mL
male, Sprague Dawley (Crl:CD (SD)IGS BR), 200 mg/kg/day, Day 28, male, read-out: AUC0-t(last)
  AUC(0-t): 4410 ± 3980 ng·h/mL
male, Sprague Dawley (Crl:CD (SD)IGS BR), 800 mg/kg, Day 1, male
  Cmax: 1480 ± 1110 ng/mL
male, Sprague Dawley (Crl:CD (SD)IGS BR), 800 mg/kg, Day 1, male, read-out: AUC0-t(last)
  AUC(0-t): 10000 ± 2160 ng·h/mL
male, Sprague Dawley (Crl:CD (SD)IGS BR), 800 mg/kg/day, Day 28, male
  Cmax: 523 ± 127 ng/mL
male, Sprague Dawley (Crl:CD (SD)IGS BR), 800 mg/kg/day, Day 28, male, read-out: AUC0-t(last)
  AUC(0-t): 11900 ± 5360 ng·h/mL
